The source of these data is article PMC6803848, “Exploring New Structural Features of the 18β-Glycyrrhetinic Acid Scaffold for the Inhibition of Anaplastic Lymphoma Kinase” (Molecules, 2019).

The subject of one data set is A549. Put plainly: MTT antiproliferative assay, A549 cells. The note with it: Homo sapiens, 48 h, MTT, read-out: Antiproliferative activity (growth inhibition, %); for inhibition at 2 µg/mL: A549, 2 μg/mL; for inhibition at 20 µg/mL: A549, 20 μg/mL. It counts as cell-based. The protocol:
(§1) All the cells were seeded in 96-well plates and incubated with 5% CO2 at 37 °C for 24 h. Next, the compounds and the reference were dissolved into the culture medium. The final concentration of DMSO in the medium was less than 0.5%. After the cells were treated with compounds for 48 h, the supernatant was removed and 5 mg/mL of a fresh prepared solution of MTT was added to each well and incubated with the cells at 37 °C for another 4 h. The medium was removed, and 100 μL of testing solution was added to each well. After an overnight incubation with 5% CO2 at 37 °C, the absorbance was measured at 490/630 nm by the microplate reader. The IC50 was calculated using GraphPad Prism version 6.0 software (San Diego, CA, USA) from the non-linear curve.
(In general: Tetrazolium assays rely on reduction of a dye to a coloured formazan, in cell work by metabolically active cells.)

The next data set deals with HT29. The data set is described as follows: MTT antiproliferative assay, HT29 cells. It counts as cell-based. The note with it: Homo sapiens, HT-29, 48 h, MTT, read-out: Antiproliferative activity (growth inhibition, %); for inhibition at 2 µg/mL: HT29, 2 μg/mL; for inhibition at 20 µg/mL: HT29, 20 μg/mL. As to the method:
as §1

The structures appear in SMILES notation.

Turning to `CC1(C)C2CC[C@]3(C)[C@H](C(=O)C=C4[C@@H]5C[C@@](C)(C(=O)O)CC[C@]5(C)CC[C@]43C)[C@@]2(C)CC[C@@H]1OC(=O)Nc1ccc(Cl)cc1` (stereo partly drawn) [3d, 3β-(((4-chlorophenyl)carbamoyl)oxy)-11-oxo-olean-12-en-30-oic acid], the melting point lay in the range of 235.1 to 236.7 °C. Further, in the data set on A549, the inhibition at 2 µg/mL was 9.93% and the inhibition at 20 µg/mL came to 55.4%. In the data set on HT29, the inhibition at 2 µg/mL was found to be 13.7% and the inhibition at 20 µg/mL came to 56.2%.

In the case of `CC1(C)C2CC[C@]3(C)[C@H](C(=O)C=C4[C@@H]5C[C@@](C)(C(=O)O)CC[C@]5(C)CC[C@]43C)[C@@]2(C)CC[C@@H]1OC(=O)Nc1ccc(F)cc1` (stereo partly drawn) [3h, 3β-(((4-fluorophenyl)carbamoyl)oxy)-11-oxo-olean-12-en-30-oic acid], the melting point lay within 267.9 to 268.9 °C. In the data set with A549, the inhibition at 2 µg/mL came out at 34.4% and the inhibition at 20 µg/mL was determined as 56.7%. Also, in the data set on HT29, the inhibition at 2 µg/mL was 11.8% and the inhibition at 20 µg/mL is 58.6%.

The molecule `CC1(C)C2CC[C@]3(C)[C@H](C(=O)C=C4[C@@H]5C[C@@](C)(C(=O)O)CC[C@]5(C)CC[C@]43C)[C@@]2(C)CC[C@@H]1OC(=O)CN1CCN(c2ccccn2)CC1` (stereo partly drawn) [6d, 3β-(2-(4-(pyridin-2-yl)piperazin-1-yl)acetoxy)-11-oxo-olean-12-en-30-oic acid] displayed a melting point of 294 to 295.6 °C. In the data set with A549, the inhibition at 2 µg/mL was found to be 0% and the inhibition at 20 µg/mL was determined as 0%. In addition, in the data set on HT29, the inhibition at 2 µg/mL amounted to 0% and the inhibition at 20 µg/mL was determined as 0%.

Take `CC1(C)C2CC[C@]3(C)[C@H](C(=O)C=C4[C@@H]5C[C@@](C)(C(=O)O)CC[C@]5(C)CC[C@]43C)[C@@]2(C)CC[C@@H]1OC(=O)Nc1ccc(Br)cc1` (stereo partly drawn) [3g, 3β-(((4-bromophenyl)carbamoyl)oxy)-11-oxo-olean-12-en-30-oic acid]: the melting point fell in the range of 263 to 265 °C. For the same molecule, in the data set on A549, the inhibition at 2 µg/mL amounted to 9.72% and the inhibition at 20 µg/mL was determined as 63.4%. Also, in the data set with HT29, the inhibition at 2 µg/mL was 18.6% and the inhibition at 20 µg/mL turned out to be 76.5%.

The molecule `CC1(C(=O)N2CCOCC2)CCC2(C)CCC3(C)C(=CC(=O)C4C5(C)CCC(OC(=O)Nc6ccc(OC(F)(F)F)cc6)C(C)(C)C5CCC43C)C2C1` (stereo not drawn) [4n, 3β-(((4-(trifluoromethoxy)phenyl)carbamoyl)oxy)-30-morpholino-olean-12-ene-11,30-dione] yielded a melting point of 308 to 310.1 °C. Moreover, in the data set with A549, the inhibition at 2 µg/mL is 0% and the inhibition at 20 µg/mL came to 0%. Also, in the data set on HT29, the inhibition at 2 µg/mL stood at 7.12% and the inhibition at 20 µg/mL worked out at 40.2%.

`CC1(C)C2CC[C@]3(C)[C@H](C(=O)C=C4[C@@H]5C[C@@](C)(C(=O)N6CCOCC6)CC[C@]5(C)CC[C@]43C)[C@@]2(C)CC[C@@H]1OC(=O)Nc1ccc(Cl)c(C(F)(F)F)c1` (stereo partly drawn) [4b, 3β-(((4-chloro-3-(trifluoromethyl)phenyl)carbamoyl)oxy)-30-morpholino-olean-12-ene-11,30-dione] gave a melting point of 209.5 to 211.1 °C. Moreover, in the data set with A549, the inhibition at 2 µg/mL was 0% and the inhibition at 20 µg/mL was 0%. In addition, in the data set on HT29, the inhibition at 2 µg/mL came to 14.4% and the inhibition at 20 µg/mL stood at 32.8%.

The molecule `CC1(C)C2CC[C@]3(C)[C@H](C(=O)C=C4[C@@H]5C[C@@](C)(C(=O)N6CCOCC6)CC[C@]5(C)CC[C@]43C)[C@@]2(C)CC[C@@H]1OC(=O)Nc1ccc(C(F)(F)F)cc1` (stereo partly drawn) [4i, 3β-(((4-(trifluoromethyl)phenyl)carbamoyl)oxy)-30-morpholino-olean-12-ene-11,30-dione] had a melting point of 296.4 to 298 °C. Also, in the data set with A549, the inhibition at 2 µg/mL came out at 0% and the inhibition at 20 µg/mL is 4.46%. In the data set on HT29, the inhibition at 2 µg/mL turned out to be 13.7% and the inhibition at 20 µg/mL was 27.3%.

`CC1(C(=O)O)CCC2(C)CCC3(C)C(=CC(=O)C4C5(C)CCC(OC(=O)Cc6ccc(Cl)cc6)C(C)(C)C5CCC43C)C2C1` (stereo not drawn) [7a, 3β-(2-(4-chlorophenyl)acetoxy)-11-oxo-olean-12-en-30-oic acid] had a melting point of 312 to 312.7 °C. In the data set on A549, the inhibition at 2 µg/mL amounted to 11.3% and the inhibition at 20 µg/mL was found to be 27.4%. Besides, in the data set with HT29, the inhibition at 2 µg/mL was 33.3% and the inhibition at 20 µg/mL is 57.5%.

For `Cc1ccc(NC(=O)O[C@H]2CC[C@@]3(C)C(CC[C@]4(C)[C@@H]3C(=O)C=C3[C@@H]5C[C@@](C)(C(=O)N6CCOCC6)CC[C@]5(C)CC[C@]34C)C2(C)C)cc1Cl` (stereo partly drawn) [4f, 3β-(((3-chloro-4-methylphenyl)carbamoyl)oxy)-30-morpholino-olean-12-ene-11,30-dione], the melting point was in the range of 293.7 to 295.6 °C. For the same molecule, in the data set on A549, the inhibition at 2 µg/mL stood at 0% and the inhibition at 20 µg/mL came out at 0%. For the same molecule, in the data set on HT29, the inhibition at 2 µg/mL was determined as 7.1% and the inhibition at 20 µg/mL came out at 18.4%.

`CC1(C)C2CC[C@]3(C)[C@H](C(=O)C=C4[C@@H]5C[C@@](C)(C(=O)O)CC[C@]5(C)CC[C@]43C)[C@@]2(C)CC[C@@H]1OC(=O)CN1CCOCC1` (stereo partly drawn) [6a, 3β-(2-morpholinoacetoxy)-11-oxo-olean-12-en-30-oic acid] displayed a melting point of 275.3 to 276.4 °C. In the data set on A549, the inhibition at 2 µg/mL was found to be 0% and the inhibition at 20 µg/mL was 0%. Moreover, in the data set with HT29, the inhibition at 2 µg/mL was determined as 0% and the inhibition at 20 µg/mL is 0%.

In the case of `CC1(C)C2CC[C@]3(C)[C@H](C(=O)C=C4[C@@H]5C[C@@](C)(C(=O)O)CC[C@]5(C)CC[C@]43C)[C@@]2(C)CC[C@@H]1OC(=O)CN1CCC(C(N)=O)CC1` (stereo partly drawn) [6b, 3β-(2-(4-carbamoylpiperidin-1-yl)acetoxy)-11-oxo-olean-12-en-30-oic acid], the melting point fell in the range of 283.5 to 285 °C. Besides, in the data set with A549, the inhibition at 2 µg/mL was found to be 0% and the inhibition at 20 µg/mL amounted to 0%. In addition, in the data set with HT29, the inhibition at 2 µg/mL worked out at 0% and the inhibition at 20 µg/mL was 12.3%.

In the case of `CC1(C)C2CC[C@]3(C)[C@H](C(=O)C=C4[C@@H]5C[C@@](C)(C(=O)O)CC[C@]5(C)CC[C@]43C)[C@@]2(C)CC[C@@H]1OC(=O)Cc1ccc(F)cc1` (stereo partly drawn) [7b, 3β-(2-(4-fluorophenyl)acetoxy)-11-oxo-olean-12-en-30-oic acid], the melting point was in the range of 305 to 307.7 °C. In addition, in the data set on A549, the inhibition at 2 µg/mL stood at 15.3% and the inhibition at 20 µg/mL stood at 31.2%. In the data set with HT29, the inhibition at 2 µg/mL turned out to be 44.1% and the inhibition at 20 µg/mL was found to be 59%.

The molecule `CC1(C(=O)N2CCOCC2)CCC2(C)CCC3(C)C(=CC(=O)C4C5(C)CCC(OC(=O)Nc6ccc(F)cc6)C(C)(C)C5CCC43C)C2C1` (stereo not drawn) [4h, 3β-(((4-fluorophenyl)carbamoyl)oxy)-30-morpholino-olean-12-ene-11,30-dione] had a melting point of 305.1 to 311.4 °C. For the same molecule, in the data set with A549, the inhibition at 2 µg/mL was determined as 0% and the inhibition at 20 µg/mL came out at 8.54%. Besides, in the data set with HT29, the inhibition at 2 µg/mL is 14.8% and the inhibition at 20 µg/mL was determined as 30.4%.

Turning to `COc1ccc(NC(=O)O[C@H]2CC[C@@]3(C)C(CC[C@]4(C)[C@@H]3C(=O)C=C3[C@@H]5C[C@@](C)(C(=O)N6CCOCC6)CC[C@]5(C)CC[C@]34C)C2(C)C)cc1` (stereo partly drawn) [4m, 3β-(((4-methoxyphenyl)carbamoyl)oxy)-30-morpholino-olean-12-ene-11,30-dione], the melting point lay within 305 to 306.7 °C. Also, in the data set on A549, the inhibition at 2 µg/mL stood at 0% and the inhibition at 20 µg/mL is 8.11%. In the data set on HT29, the inhibition at 2 µg/mL was determined as 15.7% and the inhibition at 20 µg/mL is 23.2%.

`CC1(C)C2CC[C@]3(C)[C@H](C(=O)C=C4[C@@H]5C[C@@](C)(C(=O)N6CCOCC6)CC[C@]5(C)CC[C@]43C)[C@@]2(C)CC[C@@H]1OC(=O)Nc1cccc(Cl)c1` (stereo partly drawn) [4e, 3β-(((3-chlorophenyl)carbamoyl)oxy)-30-morpholino-olean-12-ene-11,30-dione] came in with a melting point of 291 to 292.5 °C. In the data set with A549, the inhibition at 2 µg/mL came out at 0% and the inhibition at 20 µg/mL turned out to be 0%. Besides, in the data set with HT29, the inhibition at 2 µg/mL worked out at 7.22% and the inhibition at 20 µg/mL stood at 13.2%.

Regarding `COc1cccc(NC(=O)O[C@H]2CC[C@@]3(C)C(CC[C@]4(C)[C@@H]3C(=O)C=C3[C@@H]5C[C@@](C)(C(=O)O)CC[C@]5(C)CC[C@]34C)C2(C)C)c1` (stereo partly drawn) [3l, 3β-(((3-methoxyphenyl)carbamoyl)oxy)-11-oxo-olean-12-en-30-oic acid], the melting point fell in the range of 259.5 to 261.1 °C. In the data set with A549, the inhibition at 2 µg/mL is 9.74% and the inhibition at 20 µg/mL is 53.7%. Further, in the data set with HT29, the inhibition at 2 µg/mL is 6.06% and the inhibition at 20 µg/mL is 47.4%.

Molecule `COc1ccc(NC(=O)O[C@H]2CC[C@@]3(C)C(CC[C@]4(C)[C@@H]3C(=O)C=C3[C@@H]5C[C@@](C)(C(=O)O)CC[C@]5(C)CC[C@]34C)C2(C)C)cc1` (stereo partly drawn) [3m, 3β-(((4-methoxyphenyl)carbamoyl)oxy)-11-oxo-olean-12-en-30-oic acid] showed a melting point of 264 to 264.8 °C. For the same molecule, in the data set with A549, the inhibition at 2 µg/mL is 11.7% and the inhibition at 20 µg/mL amounted to 47.5%. Besides, in the data set with HT29, the inhibition at 2 µg/mL was determined as 12.8% and the inhibition at 20 µg/mL worked out at 32.3%.

Regarding `CC1(C(=O)N2CCOCC2)CCC2(C)CCC3(C)C(=CC(=O)C4C5(C)CCC(OC(=O)Nc6ccc(Br)cc6)C(C)(C)C5CCC43C)C2C1` (stereo not drawn) [4g, 3β-(((4-bromophenyl)carbamoyl)oxy)-30-morpholino-olean-12-ene-11,30-dione], in the data set with A549, the inhibition at 2 µg/mL is 0% and the inhibition at 20 µg/mL is 1.02%. For the same molecule, in the data set with HT29, the inhibition at 2 µg/mL was 14.3% and the inhibition at 20 µg/mL was found to be 27.1%.

The melting point is the temperature, or range, at which the solid turns liquid. One may read the inhibition as the share of the control response that was lost under treatment.
